Legend:
Type in all cases: in vivo
[1] = tested on: foxtail (Setaria spp.); experiment: Test C: preemergence weed control in rice, foxtail; settings: 29 days after treatment
Excerpt: (§1) In test A, soybeans, peanuts, lima beans, green beans and squash were planted in a field infested with the following weed seeds: crabgrass (Digitaria sanquinalis), foxtails (Setaria spp.), barnyardgrass (Echinochloa crusgalli), pigweed (Amaranthus spp.), ragweed (Ambrosia artemisiifolia), velvetleaf (Abutilon theophrasti), purslane (Portulaca oleracea) and flower-of-an-hour (Hibiscus trionum). A 50% wettable powder formulation of 2-(4-chloro-2-fluorophenyl)-4,5,6,7-tetrahydro-2H-isoindole-1,3-dione was applied in the form of an aqueous suspension at rates of 0.125, 0.25, 0.5 and 1.0 kg/ha, each treatment replicated twice. The plots were rated for percent weed control and crop response seven weeks after treatment. Crop response was expressed on a scale of 0 = no injury to 10 = complete kill.
(§2) Test C concerned preemergence weed control in rice. The field selected contained seeds of the following weed species: crabgrass (Digitaria sanquinalis), foxtail (Setaria spp.), barnyardgrass (Echinochloa crusgalli), pigweed (Amaranthus spp.), ragweed (Ambrosia artemisiifolia), velvetleaf (Abutilon theophrasti), purslane (Portulaca oleracea) and flower-of-an-hour (Hibiscus trionum). Two varieties of rice, CSM-3 and Nato, were planted at depths of both 1 and 2 cm. In addition, rice seedlings of both varieties were transplanted into the field to be treated. Immediately thereafter, the plot was treated with an aqueous suspension of 2-(4-chloro-2-fluorophenyl)-4,5,6,7-tetrahydro-2H-isoindole-1,3-dione (Treatment I) at rates of 0.125 and 0.25 kg/ha, and an aqueous suspension of 2-(4-chlorophenyl)-4,5,6,7-tetrahydro-2H-isoindole-1,3dione (Treatment II) at rates of 0.25, 0.50, 1.00 and 2.00 kg/ha. The test chemicals had been formulated as 50% wettable powders. Overall spray volume was 540 l/ha. Ratings of percent weed control obtained and crop response were made 29 days after treatment, as described for test A. The ratings are summarized in the following Table III.

[2] = tested on: velvetleaf (Abutilon theophrasti); experiment: Test B: overall spray in carrot field after weed emergence, percent control of velvetleaf; settings: six weeks after treatment, 0.1% Tween 20
Excerpt: (§3) Test B involved a field sown to carrots and in which the following weed species emerged naturally: crabgrass (Digitaria sanquinalis), foxtails (Setaria spp.), barnyardgrass (Echinochloa crusgalli), pigweed (Amaranthus spp.), ragweed (Ambrosia artemisiifolia), velvetleaf (Abutilon theophrasti), smartweed (Polygonum spp.) and lambsquarters (Chenopodium album). Sixteen days after sowing, when all species of weeds had emerged, the plants were sprayed overall with a 50% wettable powder formulation of 2-(4-chloro-2-fluorophenyl)4,5,6,7-tetrahydro-2H-isoindole-1,3dione (Treatment I) in the form of an aqueous suspension, at rates of 0.5, 1.0, 2.0 and 4.0 kg/ha, and with 2-(4-chlorophenyl)-4,5,6,7-tetrahydro-2H-isoindole-1,3-dione (Treatment II) in the same form and at the same rates. The spray volume was 425 l/ha. The surfactant Tween 20* was added to all treatments in a concentration of 0.1% by weight. Six weeks after treatment, visual observations were made of percent weed control obtained and, for carrots, crop response.
(§4) *Tween 20 -- A trademark of ICI of America which is the reaction product of sorbitan monolaurate with an average of 20 moles of ethylene oxide.

[3] = tested on: barnyardgrass (Echinochloa crusgalli); experiment: Test C: preemergence weed control in rice, barnyardgrass; settings: 29 days after treatment
Excerpt: as §1, §2

[4] = tested on: pigweed (Amaranthus spp.); experiment: Test C: preemergence weed control in rice, pigweed; settings: 29 days after treatment
Excerpt: as §1, §2

[5] = tested on: velvetleaf (Abutilon theophrasti); experiment: Test C: preemergence weed control in rice, velvetleaf; settings: 29 days after treatment
Excerpt: as §1, §2

[6] = tested on: ragweed (Ambrosia artemisiifolia); experiment: Test B: overall spray in carrot field after weed emergence, percent control of ragweed; settings: six weeks after treatment, 0.1% Tween 20
Excerpt: as §3, §4

[7] = tested on: ragweed (Ambrosia artemisiifolia); experiment: Test C: preemergence weed control in rice, ragweed; settings: 29 days after treatment
Excerpt: as §1, §2

[8] = tested on: crabgrass (Digitaria sanquinalis); experiment: Test C: preemergence weed control in rice, crabgrass; settings: 29 days after treatment
Excerpt: as §1, §2

[9] = tested on: rice, variety CSM-3; experiment: Test C: crop response of rice CSM-3; settings: 29 days, 0 = no injury to 10 = complete kill; for Crop Response, Rice CSM-3, 1 cm: planting depth 1 cm; for Crop Response, Rice CSM-3, 2 cm: planting depth 2 cm; for Crop Response, Rice CSM-3, T: transplanted
Excerpt: as §1, with “A 50% wettable powder formulation of 2-(4-chloro-2-fluorophenyl)-4,5,6,7-tetrahydro-2H-isoindole-1,3-dione was applied in the form of an aqueous suspension at rates of 0.125, 0.25, 0.5 and 1.0 kg/ha, each treatment replicated twice.” left out
Test C concerned preemergence weed control in rice. The field selected contained seeds of the following weed species: crabgrass (Digitaria sanquinalis), foxtail (Setaria spp.), barnyardgrass (Echinochloa crusgalli), pigweed (Amaranthus spp.), ragweed (Ambrosia artemisiifolia), velvetleaf (Abutilon theophrasti), purslane (Portulaca oleracea) and flower-of-an-hour (Hibiscus trionum). Two varieties of rice, CSM-3 and Nato, were planted at depths of both 1 and 2 cm. In addition, rice seedlings of both varieties were transplanted into the field to be treated. […] The test chemicals had been formulated as 50% wettable powders. Overall spray volume was 540 l/ha.

[10] = tested on: smartweed (Polygonum spp.); experiment: Test B: overall spray in carrot field after weed emergence, percent control of smartweed; settings: six weeks after treatment, 0.1% Tween 20
Excerpt: as §3, §4

[11] = tested on: pigweed (Amaranthus spp.); experiment: Test B: overall spray in carrot field after weed emergence, percent control of pigweed; settings: six weeks after treatment, 0.1% Tween 20
Excerpt: as §3, §4

[12] = tested on: barnyardgrass (Echinochloa crusgalli); experiment: Test B: overall spray in carrot field after weed emergence, percent control of barnyardgrass; settings: six weeks after treatment, 0.1% Tween 20
Excerpt: as §3, §4

SMILES: O=C1C2=C(CCCC2)C(=O)N1c1ccc(Cl)cc1F [Treatment I, 2-(4-chloro-2-fluorophenyl)-4,5,6,7-tetrahydro-2H-isoindole-1,3-dione]
- % Control, Foxtail ([1]; 0.125 kg/ha): 96%
- % Control, Foxtail ([1]; 0.25 kg/ha): 100%
- % Control, Velvetleaf ([2]; 0.5 kg/ha): 100%
- % Control, Velvetleaf ([2]; 1.0 kg/ha): 100%
- % Control, Velvetleaf ([2]; 2.0 kg/ha): 100%
- % Control, Velvetleaf ([2]; 4.0 kg/ha): 100%
- % Control, Barnyardgrass ([3]; 0.125 kg/ha): 90%
- % Control, Barnyardgrass ([3]; 0.25 kg/ha): 99%
- % Control, Pigweed ([4]; 0.125 kg/ha): 99%
- % Control, Pigweed ([4]; 0.25 kg/ha): 100%
- % Control, Velvetleaf ([5]; 0.125 kg/ha): 100%
- % Control, Velvetleaf ([5]; 0.25 kg/ha): 100%
- % Control, Ragweed ([6]; 0.5 kg/ha): 98%
- % Control, Ragweed ([6]; 1.0 kg/ha): > 99%
- % Control, Ragweed ([6]; 2.0 kg/ha): 100%
- % Control, Ragweed ([6]; 4.0 kg/ha): 100%
- % Control, Ragweed ([7]; 0.125 kg/ha): 100%
- % Control, Ragweed ([7]; 0.25 kg/ha): 100%
- % Control, Crabgrass ([8]; 0.125 kg/ha): 96%
- % Control, Crabgrass ([8]; 0.25 kg/ha): 100%
- Crop Response, Rice CSM-3, 1 cm ([9]; 0.125 kg/ha): 3
- Crop Response, Rice CSM-3, 2 cm ([9]; 0.125 kg/ha): 0
- Crop Response, Rice CSM-3, T ([9]; 0.125 kg/ha): 0
- Crop Response, Rice CSM-3, 1 cm ([9]; 0.25 kg/ha): 5
- Crop Response, Rice CSM-3, 2 cm ([9]; 0.25 kg/ha): 1
- Crop Response, Rice CSM-3, T ([9]; 0.25 kg/ha): 0
- % Control, Smartweed ([10]; 0.5 kg/ha): > 99%
- % Control, Smartweed ([10]; 1.0 kg/ha): 100%
- % Control, Smartweed ([10]; 2.0 kg/ha): 100%
- % Control, Smartweed ([10]; 4.0 kg/ha): 100%
- % Control, Pigweed ([11]; 0.5 kg/ha): 92%
- % Control, Pigweed ([11]; 1.0 kg/ha): 99%
- % Control, Pigweed ([11]; 2.0 kg/ha): 100%
- % Control, Pigweed ([11]; 4.0 kg/ha): 100%
- % Control, Barnyardgrass ([12]; 0.5 kg/ha): 65%
- % Control, Barnyardgrass ([12]; 1.0 kg/ha): 90%
- % Control, Barnyardgrass ([12]; 2.0 kg/ha): 94%
- % Control, Barnyardgrass ([12]; 4.0 kg/ha): > 99%

SMILES: O=C1C2=C(CCCC2)C(=O)N1c1ccc(Cl)cc1 [Treatment II, 2-(4-chlorophenyl)-4,5,6,7-tetrahydro-2H-isoindole-1,3-dione]
- % Control, Foxtail ([1]; 0.25 kg/ha): 99%
- % Control, Foxtail ([1]; 0.50 kg/ha): 100%
- % Control, Foxtail ([1]; 1.0 kg/ha): 100%
- % Control, Foxtail ([1]; 2.0 kg/ha): 100%
- % Control, Velvetleaf ([2]; 0.5 kg/ha): 70%
- % Control, Velvetleaf ([2]; 1.0 kg/ha): 80%
- % Control, Velvetleaf ([2]; 2.0 kg/ha): 100%
- % Control, Velvetleaf ([2]; 4.0 kg/ha): 100%
- % Control, Barnyardgrass ([3]; 0.25 kg/ha): 58%
- % Control, Barnyardgrass ([3]; 0.50 kg/ha): 97%
- % Control, Barnyardgrass ([3]; 1.0 kg/ha): 99%
- % Control, Barnyardgrass ([3]; 2.0 kg/ha): 100%
- % Control, Pigweed ([4]; 0.25 kg/ha): 100%
- % Control, Pigweed ([4]; 0.50 kg/ha): 100%
- % Control, Pigweed ([4]; 1.0 kg/ha): 100%
- % Control, Pigweed ([4]; 2.0 kg/ha): 100%
- % Control, Velvetleaf ([5]; 0.25 kg/ha): 100%
- % Control, Velvetleaf ([5]; 0.50 kg/ha): 100%
- % Control, Velvetleaf ([5]; 1.0 kg/ha): 100%
- % Control, Velvetleaf ([5]; 2.0 kg/ha): 100%
- % Control, Ragweed ([6]; 0.5 kg/ha): 50%
- % Control, Ragweed ([6]; 1.0 kg/ha): 70%
- % Control, Ragweed ([6]; 2.0 kg/ha): 90%
- % Control, Ragweed ([6]; 4.0 kg/ha): > 99%
- % Control, Ragweed ([7]; 0.25 kg/ha): 100%
- % Control, Ragweed ([7]; 0.50 kg/ha): 100%
- % Control, Ragweed ([7]; 1.0 kg/ha): 100%
- % Control, Ragweed ([7]; 2.0 kg/ha): 100%
- % Control, Crabgrass ([8]; 0.25 kg/ha): 99%
- % Control, Crabgrass ([8]; 0.50 kg/ha): 100%
- % Control, Crabgrass ([8]; 1.0 kg/ha): 100%
- % Control, Crabgrass ([8]; 2.0 kg/ha): 100%
- Crop Response, Rice CSM-3, 1 cm ([9]; 0.25 kg/ha): 4
- Crop Response, Rice CSM-3, 2 cm ([9]; 0.25 kg/ha): 1
- Crop Response, Rice CSM-3, T ([9]; 0.25 kg/ha): 0
- Crop Response, Rice CSM-3, 1 cm ([9]; 0.50 kg/ha): 5
- Crop Response, Rice CSM-3, 2 cm ([9]; 0.50 kg/ha): 2
- Crop Response, Rice CSM-3, T ([9]; 0.50 kg/ha): 0
- Crop Response, Rice CSM-3, 1 cm ([9]; 1.0 kg/ha): 7
- Crop Response, Rice CSM-3, 2 cm ([9]; 1.0 kg/ha): 4
- Crop Response, Rice CSM-3, T ([9]; 1.0 kg/ha): 0
- Crop Response, Rice CSM-3, 1 cm ([9]; 2.0 kg/ha): 10
- Crop Response, Rice CSM-3, 2 cm ([9]; 2.0 kg/ha): 7
- Crop Response, Rice CSM-3, T ([9]; 2.0 kg/ha): 1
- % Control, Smartweed ([10]; 0.5 kg/ha): 70%
- % Control, Smartweed ([10]; 1.0 kg/ha): 80%
- % Control, Smartweed ([10]; 2.0 kg/ha): 80%
- % Control, Smartweed ([10]; 4.0 kg/ha): 99%
- % Control, Pigweed ([11]; 0.5 kg/ha): 50%
- % Control, Pigweed ([11]; 1.0 kg/ha): 70%
- % Control, Pigweed ([11]; 2.0 kg/ha): 90%
- % Control, Pigweed ([11]; 4.0 kg/ha): 99%
- % Control, Barnyardgrass ([12]; 0.5 kg/ha): 0%
- % Control, Barnyardgrass ([12]; 1.0 kg/ha): 20%
- % Control, Barnyardgrass ([12]; 2.0 kg/ha): 40%
- % Control, Barnyardgrass ([12]; 4.0 kg/ha): 50%

— patent publication US4001272A, “Herbicidal 2-fluoro-4-halo-phenyl-4,5,6,7-tetrahydro-2H-isoindole-1,3-diones” (E. I. Du Pont de Nemours and Company, priority 1974, dated 1977)
